From US8802597B2, “Herbicidal pyrimidines” (E I du Pont de Nemours and Company, priority 2003, dated 2014)
Like-named read-outs stand apart in the source and are kept apart here.

Key:
Type in all cases: in vivo
[1] = tested on: Surinam grass (Brachiaria decumbens); assay: Test B pre/postemergence; conditions: Urochloa decumbens; for pest or weed control at 125 g/ha: 125 g ai/ha; for pest or weed control at 62 g/ha: 62 g ai/ha
Outline: (§1)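 Visual rating, 0 (no effect) to 100 (complete control) versus controls, taken 13–15 days after treatment in greenhouse. Compounds formulated in non-phytotoxic solvent plus surfactant; pre: sprayed after seeding; post: plants at 1- to 4-leaf stage, 2–18 cm.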

[2] = tested on: barnyardgrass (Echinochloa crus-galli); assay: Test B pre/postemergence; conditions: Echinochloa crus-galli, post-emergence, Postemergence, scale 0 to 100 (0 no effect, 100 complete control), read-out: Barnyardgrass plant response rating
Outline: as §1

[3] = tested on: cocklebur (Xanthium strumarium); assay: Test B pre/postemergence; conditions: Xanthium strumarium; for pest or weed control at 62 g/ha: 62 g ai/ha; for pest or weed control at 125 g/ha: 125 g ai/ha
Outline: as §1

corn (Zea mays) = assay: Test B pre/postemergence; conditions: Zea mays
Outline: as §1

[4] = tested on: crabgrass (Digitaria sanguinalis); assay: Test B pre/postemergence; conditions: Digitaria sanguinalis; for pest or weed control at 62 g/ha: 62 g ai/ha; for pest or weed control at 125 g/ha: 125 g ai/ha
Outline: as §1

[5] = tested on: giant foxtail (Setaria faberii); assay: Test B pre/postemergence; conditions: Setaria faberi; for pest or weed control at 125 g/ha: 125 g ai/ha; for pest or weed control at 62 g/ha: 62 g ai/ha
Outline: as §1

[6] = tested on: lambsquarters (Chenopodium album); assay: Test B pre/postemergence; conditions: Chenopodium album, post-emergence, Postemergence, scale 0 to 100 (0 no effect, 100 complete control), read-out: Lambsquarters plant response rating
Outline: as §1

[7] = tested on: morningglory (Ipomoea coccinea); assay: Test B pre/postemergence; conditions: Ipomoea; for pest or weed control at 62 g/ha: 62 g ai/ha; for pest or weed control at 125 g/ha: 125 g ai/ha
Outline: as §1

[8] = tested on: pigweed (Amaranthus retroflexus); assay: Test B pre/postemergence; conditions: Amaranthus retroflexus, post-emergence, Postemergence, scale 0 to 100 (0 no effect, 100 complete control), read-out: Pigweed plant response rating
Outline: as §1

[9] = tested on: velvetleaf (Abutilon theophrasti); assay: Test B pre/postemergence; conditions: Abutilon theophrasti; for pest or weed control at 62 g/ha: 62 g ai/ha; for pest or weed control at 125 g/ha: 125 g ai/ha
Outline: as §1

[10] = tested on: wheat (Triticum aestivum); assay: Test B pre/postemergence; conditions: Triticum aestivum, scale 0 to 100 (0 no effect, 100 complete control); for plant injury at 62 g/ha: 62 g ai/ha; for plant injury at 125 g/ha: 125 g ai/ha
Outline: as §1

[11] = tested on: blackgrass (Alopecurus myosuroides); assay: Test B postemergence; conditions: Alopecurus myosuroides, post-emergence, scale 0 to 100 (0 no effect, 100 complete control), read-out: Blackgrass plant response rating
Outline: as §1

wild oat (Avena fatua) = assay: Test B postemergence; conditions: Avena fatua, post-emergence, scale 0 to 100 (0 no effect, 100 complete control), read-out: Oat, Wild plant response rating
Outline: as §1

[12] = tested on: barnyardgrass (Echinochloa crus-galli); assay: Test B flooded paddy test; conditions: Echinochloa crus-galli, Flood, scale 0 to 100, read-out: Plant response rating, Barnyardgrass
Outline: (§2)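 Plants were grown to the 2-leaf stage before treatment, then kept in a greenhouse for 13 to 15 days. Injury was rated visually against untreated controls on a 0 to 100 scale, where 0 is no effect and 100 is complete control.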

[13] = tested on: duck salad (Heteranthera limosa); assay: Test B flooded paddy test; conditions: Heteranthera limosa, Flood, scale 0 to 100, read-out: Plant response rating, Ducksalad
Outline: as §2

rice (Oryza sativa) = assay: Test B flooded paddy test; conditions: Oryza sativa, Flood, scale 0 to 100, read-out: Plant response rating, Rice
Outline: as §2

[14] = tested on: umbrella sedge (Cyperus difformis); assay: Test B flooded paddy test; conditions: Cyperus difformis, Flood, scale 0 to 100, read-out: Plant response rating, Sedge, Umbrella
Outline: as §2

[15] = post-emergence, Postemergence, scale 0 to 100 (0 no effect, 100 complete control), read-out: Surinam Grass plant response rating
[16] = post-emergence, Postemergence, scale 0 to 100 (0 no effect, 100 complete control), read-out: Cocklebur plant response rating
[17] = post-emergence, Postemergence, scale 0 to 100 (0 no effect, 100 complete control), read-out: Crabgrass plant response rating
[18] = post-emergence, Postemergence, scale 0 to 100 (0 no effect, 100 complete control), read-out: Foxtail, Giant plant response rating
[19] = post-emergence, Postemergence, scale 0 to 100 (0 no effect, 100 complete control), read-out: Morningglory plant response rating
[20] = post-emergence, Postemergence, scale 0 to 100 (0 no effect, 100 complete control), read-out: Velvetleaf plant response rating
[21] = post-emergence, Postemergence, read-out: Wheat plant response rating
[22] = pre-emergence, Preemergence, read-out: Plant response rating, Wheat

`CCOC(=O)c1nc(-c2ccc(Br)cc2)nc(N)c1Cl` [Compound 94, ethyl 6-amino-2-(4-bromophenyl)-5-chloro-4-pyrimidinecarboxylate] was tested, and the pest or weed control at 125 g/ha [1, 15] was 80%, the pest or weed control at 62 g/ha [1, 15] was 80% and the pest or weed control at 125 g/ha ([1]; pre-emergence, Preemergence, scale 0 to 100 (0 no effect, 100 complete control), read-out: Plant response rating, Surinam Grass) was 30%. The pest or weed control at 62 g/ha ([1]; pre-emergence, Preemergence, scale 0 to 100, 0 no effect, 100 complete control, read-out: Plant response rating, Surinam Grass) was 10%, the pest or weed control at 62 g/ha ([2]; 62 g ai/ha) was 80% and the pest or weed control at 125 g/ha ([2]; 125 g ai/ha) was 90%. It also gave a pest or weed control at 62 g/ha [3, 16] of 100%, a pest or weed control at 125 g/ha [3, 16] of 100% and a pest or weed control at 62 g/ha ([3]; pre-emergence, Preemergence, scale 0 to 100, 0 no effect, 100 complete control, read-out: Plant response rating, Cocklebur) of 30%. It also gave a pest or weed control at 125 g/ha ([3]; pre-emergence, Preemergence, scale 0 to 100 (0 no effect, 100 complete control), read-out: Plant response rating, Cocklebur) of 50%, a plant injury at 62 g/ha (corn (Zea mays); post-emergence, Postemergence, 62 g ai/ha, scale 0 to 100 (0 no effect, 100 complete control), read-out: Corn plant response rating) of 70% and a plant injury at 125 g/ha (corn (Zea mays); post-emergence, Postemergence, 125 g ai/ha, scale 0 to 100 (0 no effect, 100 complete control), read-out: Corn plant response rating) of 90%. For the same molecule, the Corn plant response rating (crop injury, 0 = no effect, 100 = complete kill) at 62 g/ha (corn (Zea mays); pre-emergence, Preemergence, 62 g ai/ha, scale 0 to 100, 0 no effect, 100 complete control) was 0%, the Corn plant response rating (crop injury, 0 = no effect, 100 = complete kill) at 125 g/ha (corn (Zea mays); pre-emergence, Preemergence, 125 g ai/ha, scale 0 to 100 (0 no effect, 100 complete control)) was 0% and the pest or weed control at 62 g/ha [4, 17] was 70%. For the same molecule, the pest or weed control at 125 g/ha [4, 17] was 80%, the pest or weed control at 62 g/ha ([4]; pre-emergence, Preemergence, scale 0 to 100, 0 no effect, 100 complete control, read-out: Plant response rating, Crabgrass) was 40% and the pest or weed control at 125 g/ha ([4]; pre-emergence, Preemergence, scale 0 to 100 (0 no effect, 100 complete control), read-out: Plant response rating, Crabgrass) was 70%. It also gave a pest or weed control at 125 g/ha [5, 18] of 60%, a pest or weed control at 62 g/ha [5, 18] of 50% and a pest or weed control at 125 g/ha ([5]; pre-emergence, Preemergence, scale 0 to 100 (0 no effect, 100 complete control), read-out: Plant response rating, Foxtail, Giant) of 20%. It also gave a pest or weed control at 62 g/ha ([5]; pre-emergence, Preemergence, scale 0 to 100, 0 no effect, 100 complete control, read-out: Plant response rating, Foxtail, Giant) of 0%, a pest or weed control at 62 g/ha ([6]; 62 g ai/ha) of 90% and a pest or weed control at 125 g/ha ([6]; 125 g ai/ha) of 90%. It also gave a pest or weed control at 62 g/ha [7, 19] of 80%, a pest or weed control at 125 g/ha [7, 19] of 90% and a pest or weed control at 62 g/ha ([7]; pre-emergence, Preemergence, scale 0 to 100, 0 no effect, 100 complete control, read-out: Plant response rating, Morningglory) of 0%. It also gave a pest or weed control at 125 g/ha ([7]; pre-emergence, Preemergence, scale 0 to 100 (0 no effect, 100 complete control), read-out: Plant response rating, Morningglory) of 0%, a pest or weed control at 62 g/ha ([8]; 62 g ai/ha) of 90% and a pest or weed control at 125 g/ha ([8]; 125 g ai/ha) of 90%. It also gave a pest or weed control at 62 g/ha [9, 20] of 90%, a pest or weed control at 125 g/ha [9, 20] of 100% and a pest or weed control at 62 g/ha ([9]; pre-emergence, Preemergence, scale 0 to 100, 0 no effect, 100 complete control, read-out: Plant response rating, Velvetleaf) of 40%. It also gave a pest or weed control at 125 g/ha ([9]; pre-emergence, Preemergence, scale 0 to 100 (0 no effect, 100 complete control), read-out: Plant response rating, Velvetleaf) of 70%, a plant injury at 62 g/ha [10, 21] of 40% and a plant injury at 125 g/ha [10, 21] of 60%. The plant injury at 62 g/ha [10, 22] was 30%, the plant injury at 125 g/ha [10, 22] was 60% and the pest or weed control at 62 g/ha ([11]; 62 g ai/ha) was 40%. The pest or weed control at 125 g/ha ([11]; 125 g ai/ha) was 60%, the pest or weed control at 62 g/ha (wild oat (Avena fatua); 62 g ai/ha) was 30% and the pest or weed control at 125 g/ha (wild oat (Avena fatua); 125 g ai/ha) was 30%. The pest or weed control at 125 g/ha ([12]; 125 g ai/ha) was 0%, the pest or weed control at 500 g/ha ([12]; 500 g ai/ha) was 0% and the pest or weed control at 125 g/ha ([13]; 125 g ai/ha) was 100%. It also gave a pest or weed control at 500 g/ha ([13]; 500 g ai/ha) of 100%, a plant injury at 125 g/ha (rice (Oryza sativa); 125 g ai/ha) of 0% and a plant injury at 500 g/ha (rice (Oryza sativa); 500 g ai/ha) of 0%. The pest or weed control at 125 g/ha ([14]; 125 g ai/ha) was 90% and the pest or weed control at 500 g/ha ([14]; 500 g ai/ha) was 90%.
